Experimental data from paper PMC9863751, “Specific Binding of the α-Component of the Lantibiotic Lichenicidin to the Peptidoglycan Precursor Lipid II Predetermines Its Antimicrobial Activity” (International Journal of Molecular Sciences, 2023).

Molecular target: T1, Lchα (α-component of the lantibiotic lichenicidin) (Bacillus licheniformis, UniProt P86475)
T1 construct: gene lchA1; mature post-translationally modified lantibiotic, 32 residues (leader removed; N-terminal 2-oxobutyryl, Abu3-Cys7 ring A, four (methyl)lanthionine rings); native purification from culture supernatant, 15N-labelled, no tag
T1 sequence (P86475 43-74): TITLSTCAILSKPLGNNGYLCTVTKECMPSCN
Assay: NMR titration ([…]-HSQC, Asn32 signal intensity)
Type: binding
Details: read-out: Kapp

Which Kd does the source give for CC(=O)N[C@H]1[C@H](O[C@H]2[C@H](O[C@H](C)C(=O)N[C@@H](C)C(=O)N[C@H](CCC(=O)N[C@@H](CCCCN)C(=O)N[C@H](C)C(=O)N[C@H](C)C(=O)O)C(=O)O)[C@@H](NC(C)=O)[C@@H](OP(=O)(O)OP(=O)(O)OC/C=C(/C)CC/C=C(/C)CC/C=C(/C)CC/C=C(/C)CC/C=C(/C)CC/C=C(/C)CC/C=C(/C)CC/C=C(/C)CC/C=C(\C)CC/C=C(\C)CCC=C(C)C)O[C@@H]2CO)O[C@H](CO)[C@@H](O)[C@@H]1O [lipid II] here?
Its Kd is roughly 10 µM.
